For series [1], the target named is T1, recombinant human EP4 receptor membrane protein (Homo sapiens, UniProt P35408).
T1 construct: expressed in transfected cells; host or cells: membranes of 293 cells overexpressing human EP4 receptor
The series can be described thus: Radioligand binding assay for EP4 receptor ([3H]-PGE2). The settings on record: [3H]-PGE2 1.5 nM; membrane protein 20 μg/well.

Series [2] is described as follows: Canine pharmacokinetic assay. In kind it is in vivo, male Beagle dogs. The method, then: In a mouse pharmacokinetic assay, male ICR mice (20 g to 25 g) were selected and fasted overnight. Three mice were selected and intragastrically administered with 5 mg/kg of the corresponding compound. The blood of the mice was collected before the administration and at 15 min, 30 min, 1 h, 2 h, 4 h, 8 h, 24 h after the administration. Another 3 mice were intravenously administered with 1 mg/kg of the corresponding compound, and the blood thereof was collected before the administration and at 15 min, 30 min, 1 h, 2 h, 4 h, 8 h, 24 h after the administration. The blood samples were centrifuged at 6800 g at 2° C. to 8° C. for 6 minutes, and plasma was collected and stored at −80° C. The plasma was taken at respective time point, mixed with 3-5 times the amount of acetonitrile containing internal standard, vortexed for 1 minute, centrifuged at 4° C. for 10 minutes at 13000 rpm, supernatant was added 3 times the amount of water, and the appropriate mixture was taken for LC-MS/MS analysis. The primary pharmacokinetic parameters were analyzed with a WinNonlin 7.0 software, with non-compartmental model.
In a canine pharmacokinetic assay, male Beagle dogs (8 kg to 10 Kg) were selected and fasted overnight. Three Beagle dogs were taken and intragastrically administered with 3 mg/kg of the corresponding compound. Another 3 Beagle dogs were intravenously administered with 1 mg/kg of the corresponding compound. The following operations were the same as the mouse pharmacokinetic assay.

Where [3] appears, read: male, Beagle, dog, plasma, canine, intravenous administration 1 mg/kg.
[4] abbreviates: male, Beagle, dog, plasma, canine, oral gavage administration 3 mg/kg.

The source of these data is US12643889B2, “Synthesis of novel EP4 antagonist and use in cancer and inflammation” (Wuhan Humanwell Innovative Drug Research And Development …, priority 2020, dated 2026).

T1 sequence (P35408 whole entry): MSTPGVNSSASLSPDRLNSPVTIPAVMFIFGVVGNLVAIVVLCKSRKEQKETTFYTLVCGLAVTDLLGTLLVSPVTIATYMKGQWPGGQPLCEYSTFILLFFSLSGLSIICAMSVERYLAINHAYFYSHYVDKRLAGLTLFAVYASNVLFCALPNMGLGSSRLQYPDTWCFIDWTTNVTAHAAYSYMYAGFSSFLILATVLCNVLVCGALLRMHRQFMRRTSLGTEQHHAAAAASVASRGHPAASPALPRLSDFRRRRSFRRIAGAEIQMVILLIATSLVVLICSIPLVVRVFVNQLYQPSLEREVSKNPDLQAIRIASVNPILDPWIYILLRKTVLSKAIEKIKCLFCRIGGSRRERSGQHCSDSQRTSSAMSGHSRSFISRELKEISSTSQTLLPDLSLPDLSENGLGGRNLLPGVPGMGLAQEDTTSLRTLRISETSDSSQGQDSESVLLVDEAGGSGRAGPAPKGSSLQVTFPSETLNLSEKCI

On to `C[C@H](NC(=O)c1c(C(F)F)nn(C)c1Oc1cccc(C(C)(F)F)c1)c1ccc(C(=O)O)cc1` [Compound I-5, (S)-4-(1-(5-(3-(1,1-difluoroethyl)phenoxy)-3-(difluoromethyl)-1-methyl-1H-pyrazole-4-carboxamido)ethyl)benzoic Acid], for which, in series [1], the 50% inhibitory concentration (IC50) was found to be 5.3 nM and the Ki is 2.9 nM. In series [2] (canines, oral administration), the “exposure after oral administration relative to the control compound” value was “about 2 times”. Moreover, in series [2] (setting [3]), the area under the curve AUC(0-t) turned out to be 4370 ng·h/mL, the clearance was 3.5 mL/min/kg and the half-life is 9.73 h. Besides, the Vd in series [2] (male, Beagle, dog, plasma, canine, intravenous administration 1 mg/kg, read-out: Vz) stood at 2.84 L/kg. In series [2] (setting [4]), the AUC(0-t) is 10300 ng·h/mL, the Cmax worked out at 4820 ng/mL, the time of peak concentration (Tmax) turned out to be 0.25 h and the half-life is 19.9 h.
